Source: US20230348442A1, “GALECTIN-3 INHIBITING 2-HYDROXYCYCLOALKANE-1-CARBAMOYL DERIVATIVES” (Idorsia Pharmaceuticals Ltd, priority 2020, published 2023)

Target: human Gal-3 (hGal-3) (Homo sapiens (Human), UniProt P17931)
Assay: competitive binding assay: binding of biotinylated hGal-3 to microplate-adsorbed asialofetuin (ASF), spectrophotometric
Conditions: Activity on hGal-3; mean values of several measurements
Method in brief: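 Compounds diluted in DMSO competed with biotinylated hGal-3 or hGal-1 (300-1000 ng/mL) for binding to plate-adsorbed asialofetuin for 3 h at 4° C. Bound galectin was detected with streptavidin-peroxidase (80 ng/mL, 1 h, 4° C) and ABTS substrate; IC50 reported as mean of several measurements.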

human Gal-3 (hGal-3), sequence (P17931 whole entry): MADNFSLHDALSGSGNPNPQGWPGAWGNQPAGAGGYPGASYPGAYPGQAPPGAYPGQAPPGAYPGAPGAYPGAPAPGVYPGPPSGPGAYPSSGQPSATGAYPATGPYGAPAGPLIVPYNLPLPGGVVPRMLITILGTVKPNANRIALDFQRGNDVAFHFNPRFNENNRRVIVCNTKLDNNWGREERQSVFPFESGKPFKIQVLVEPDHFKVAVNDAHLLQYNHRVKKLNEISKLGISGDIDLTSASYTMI

`CO[C@@H]1[C@@H](n2cc(-c3cc(F)c(Cl)c(F)c3)nn2)[C@@H](O)[C@@H](CO)O[C@H]1C(=O)N(c1cc(Br)cc(C#N)c1)[C@@H]1CC[C@H]1O` [Example 2.5.5R, (2R,3R,4S,5R,6R)-N-(3-bromo-5-cyanophenyl)-4-(4-(4-chloro-3,5-difluorophenyl)-1H-1,2,3-triazol-1-yl)-5-hydroxy-N-((1R,2R)-2-hydroxycyclobutyl)-6-(hydroxymethyl)-3-methoxytetrahydro-2H-pyran-2-carboxamide] gave an IC50 of 184 nM.

With `CO[C@@H]1[C@@H](n2cc(-c3cc(F)c(F)c(F)c3)nn2)[C@@H](O)[C@@H](CO)O[C@H]1C(=O)N(c1cc(Cl)cc(Cl)c1)[C@@H]1CCC[C@H]1O` [Example 1.1.2R, (2R,3R,4S,5R,6R)-N-(3,5-dichlorophenyl)-5-hydroxy-N-((1R,2R)-2-hydroxycyclopentyl)-6-(hydroxymethyl)-3-methoxy-4-(4-(3,4,5-trifluorophenyl)-1H-1,2,3-triazol-1-yl)tetrahydro-2H-pyran-2-carboxamide] the IC50 was 104 nM.

`CO[C@@H]1[C@@H](n2cc(-c3cc(F)c(F)c(F)c3)nn2)[C@@H](O)[C@@H](CO)O[C@H]1C(=O)N(c1cc(C)cc(Cl)c1)[C@H]1CCC[C@@H]1O` [Example 1.1.3, (2R,3R,4S,5R,6R)-N-(3-chloro-5-methylphenyl)-5-hydroxy-N-((1S,2S)-2-hydroxycyclopentyl)-6-(hydroxymethyl)-3-methoxy-4-(4-(3,4,5-trifluorophenyl)-1H-1,2,3-triazol-1-yl)tetrahydro-2H-pyran-2-carboxamide] showed an IC50 of 34.8 nM.

Work on `CO[C@@H]1[C@@H](n2cc(-c3ccc(Br)c(F)c3F)nn2)[C@@H](O)[C@@H](CO)O[C@H]1C(=O)N(c1cc(Cl)cc(Cl)c1)[C@H]1CC[C@@H]1O` [Example 2.12.2, (2R,3R,4S,5R,6R)-4-(4-(4-bromo-2,3-difluorophenyl)-1H-1,2,3-triazol-1-yl)-N-(3,5-dichlorophenyl)-5-hydroxy-N-((1S,2S)-2-hydroxycyclobutyl)-6-(hydroxymethyl)-3-methoxytetrahydro-2H-pyran-2-carboxamide] yielded an IC50 of 180 nM.

`CO[C@@H]1[C@@H](n2cc(-c3cc(F)c(F)c(Cl)c3)nn2)[C@@H](O)[C@@H](CO)O[C@H]1C(=O)N(c1cc(Cl)cc(C#N)c1)[C@@H]1CC[C@H]1O` [Example 2.7.4R, (2R,3R,4S,5R,6R)-4-(4-(3-chloro-4,5-difluorophenyl)-1H-1,2,3-triazol-1-yl)-N-(3-chloro-5-cyanophenyl)-5-hydroxy-N-((1R,2R)-2-hydroxycyclobutyl)-6-(hydroxymethyl)-3-methoxytetrahydro-2H-pyran-2-carboxamide] gave an IC50 of 253 nM.

In the case of `CO[C@@H]1[C@@H](n2cc(-c3cc(F)cc(Br)c3)nn2)[C@@H](O)[C@@H](CO)O[C@H]1C(=O)N(c1cc(C)cc(C#N)c1)[C@@H]1CC[C@H]1O` [Example 2.10.8R, (2R,3R,4S,5R,6R)-4-(4-(3-bromo-5-fluorophenyl)-1H-1,2,3-triazol-1-yl)-N-(3-cyano-5-methylphenyl)-5-hydroxy-N-((1R,2R)-2-hydroxycyclobutyl)-6-(hydroxymethyl)-3-methoxytetrahydro-2H-pyran-2-carboxamide], the IC50 is reported as 1190 nM.

`CO[C@@H]1[C@@H](n2cc(-c3ccc(C#N)c(F)c3)nn2)[C@@H](O)[C@@H](CO)O[C@H]1C(=O)N(c1cc(Br)cc(C#N)c1)[C@@H]1CCC[C@H]1O` [Example 1.16.5R, (2R,3R,4S,5R,6R)-N-(3-bromo-5-cyanophenyl)-4-(4-(4-cyano-3-fluorophenyl)-1H-1,2,3-triazol-1-yl)-5-hydroxy-N-((1R,2R)-2-hydroxycyclopentyl)-6-(hydroxymethyl)-3-methoxytetrahydro-2H-pyran-2-carboxamide] gave an IC50 of 729 nM.

Compound `CO[C@@H]1[C@@H](n2cc(-c3cc(F)cc(Br)c3)nn2)[C@@H](O)[C@@H](CO)O[C@H]1C(=O)N(c1cc(Br)cc(C#N)c1)[C@@H]1CCC[C@H]1O` [Example 1.10.5R, (2R,3R,4S,5R,6R)-N-(3-bromo-5-cyanophenyl)-4-(4-(3-bromo-5-fluorophenyl)-1H-1,2,3-triazol-1-yl)-5-hydroxy-N-((1R,2R)-2-hydroxycyclopentyl)-6-(hydroxymethyl)-3-methoxytetrahydro-2H-pyran-2-carboxamide] has an IC50 of 508 nM.

`CO[C@@H]1[C@@H](n2cc(-c3ccc(Cl)c(Cl)c3)nn2)[C@@H](O)[C@@H](CO)O[C@H]1C(=O)N(c1cc(Cl)cc(C#N)c1)[C@H]1CCC[C@@H]1O` [Example 1.8.4, (2R,3R,4S,5R,6R)-N-(3-chloro-5-cyanophenyl)-4-(4-(3,4-dichlorophenyl)-1H-1,2,3-triazol-1-yl)-5-hydroxy-N-((1S,2S)-2-hydroxycyclopentyl)-6-(hydroxymethyl)-3-methoxytetrahydro-2H-pyran-2-carboxamide] showed an IC50 of 75.9 nM.

For `COc1cc(-c2cn([C@H]3[C@@H](O)[C@@H](CO)O[C@@H](C(=O)N(c4cc(Cl)cc(Cl)c4)[C@H]4CC[C@@H]4O)[C@@H]3OC)nn2)cc(F)c1F` [Example 2.3.2, (2R,3R,4S,5R,6R)-N-(3,5-dichlorophenyl)-4-(4-(3,4-difluoro-5-methoxyphenyl)-1H-1,2,3-triazol-1-yl)-5-hydroxy-N-((1S,2S)-2-hydroxycyclobutyl)-6-(hydroxymethyl)-3-methoxytetrahydro-2H-pyran-2-carboxamide], the IC50 was 67.8 nM.

`CO[C@@H]1[C@@H](n2cc(-c3ccc(Cl)c(Cl)c3)nn2)[C@@H](O)[C@@H](CO)O[C@H]1C(=O)N(c1cc(Br)cc(C#N)c1)[C@H]1CC[C@@H]1O` [Example 2.8.5, (2R,3R,4S,5R,6R)-N-(3-bromo-5-cyanophenyl)-4-(4-(3,4-dichlorophenyl)-1H-1,2,3-triazol-1-yl)-5-hydroxy-N-((1S,2S)-2-hydroxycyclobutyl)-6-(hydroxymethyl)-3-methoxytetrahydro-2H-pyran-2-carboxamide] showed an IC50 of 155 nM.

`CO[C@@H]1[C@@H](n2cc(-c3cc(F)c(Cl)c(F)c3)nn2)[C@@H](O)[C@@H](CO)O[C@H]1C(=O)N(c1cc(Br)cc(C#N)c1)[C@H]1CC[C@@H]1O` [Example 2.5.5, (2R,3R,4S,5R,6R)-N-(3-bromo-5-cyanophenyl)-4-(4-(4-chloro-3,5-difluorophenyl)-1H-1,2,3-triazol-1-yl)-5-hydroxy-N-((1S,2S)-2-hydroxycyclobutyl)-6-(hydroxymethyl)-3-methoxytetrahydro-2H-pyran-2-carboxamide] gave an IC50 of 47 nM.

Compound `CO[C@@H]1[C@@H](n2cc(-c3ccc(C)c(F)c3F)nn2)[C@@H](O)[C@@H](CO)O[C@H]1C(=O)N(c1cc(Br)cc(C#N)c1)[C@H]1CCC[C@@H]1O` [Example 1.11.5, (2R,3R,4S,5R,6R)-N-(3-bromo-5-cyanophenyl)-4-(4-(2,3-difluoro-4-methylphenyl)-1H-1,2,3-triazol-1-yl)-5-hydroxy-N-((1S,2S)-2-hydroxycyclopentyl)-6-(hydroxymethyl)-3-methoxytetrahydro-2H-pyran-2-carboxamide] has an IC50 of 14.9 nM.

`CO[C@@H]1[C@@H](n2cc(-c3ccc(Br)c(F)c3F)nn2)[C@@H](O)[C@@H](CO)O[C@H]1C(=O)N(c1cc(F)cc(C#N)c1)[C@H]1CC[C@@H]1O` [Example 2.12.7, (2R,3R,4S,5R,6R)-4-(4-(4-bromo-2,3-difluorophenyl)-1H-1,2,3-triazol-1-yl)-N-(3-cyano-5-fluorophenyl)-5-hydroxy-N-((1S,2S)-2-hydroxycyclobutyl)-6-(hydroxymethyl)-3-methoxytetrahydro-2H-pyran-2-carboxamide] showed an IC50 of 48 nM.

In the case of `CO[C@@H]1[C@@H](n2cc(-c3ccc(Br)c(F)c3F)nn2)[C@@H](O)[C@@H](CO)O[C@H]1C(=O)N(c1cc(Cl)cc(C#N)c1)[C@@H]1CCC[C@H]1O` [Example 1.12.4R, (2R,3R,4S,5R,6R)-4-(4-(4-bromo-2,3-difluorophenyl)-1H-1,2,3-triazol-1-yl)-N-(3-chloro-5-cyanophenyl)-5-hydroxy-N-((1R,2R)-2-hydroxycyclopentyl)-6-(hydroxymethyl)-3-methoxytetrahydro-2H-pyran-2-carboxamide], the IC50 is reported as 90.7 nM.

`CO[C@@H]1[C@@H](n2cc(-c3cc(F)cc(Br)c3)nn2)[C@@H](O)[C@@H](CO)O[C@H]1C(=O)N(c1cc(F)cc(C#N)c1)[C@H]1CCC[C@@H]1O` [Example 1.10.7, (2R,3R,4S,5R,6R)-4-(4-(3-bromo-5-fluorophenyl)-1H-1,2,3-triazol-1-yl)-N-(3-cyano-5-fluorophenyl)-5-hydroxy-N-((1S,2S)-2-hydroxycyclopentyl)-6-(hydroxymethyl)-3-methoxytetrahydro-2H-pyran-2-carboxamide] showed an IC50 of 146 nM.

In the case of `CO[C@@H]1[C@@H](n2cc(-c3cc(F)c(Cl)c(Cl)c3)nn2)[C@@H](O)[C@@H](CO)O[C@H]1C(=O)N(c1cc(Br)cc(C#N)c1)[C@H]1CC[C@@H]1O` [Example 2.17.5, (2R,3R,4S,5R,6R)-N-(3-bromo-5-cyanophenyl)-4-(4-(3,4-dichloro-5-fluorophenyl)-1H-1,2,3-triazol-1-yl)-5-hydroxy-N-((1S,2S)-2-hydroxycyclobutyl)-6-(hydroxymethyl)-3-methoxytetrahydro-2H-pyran-2-carboxamide], the IC50 is reported as 56 nM.

In the case of `CO[C@@H]1[C@@H](n2cc(-c3cc(F)c(F)c(F)c3)nn2)[C@@H](O)[C@@H](CO)O[C@H]1C(=O)N(c1cc(Br)cc(C#N)c1)[C@@H]1CCC[C@H]1O` [Example 1.1.5R, (2R,3R,4S,5R,6R)-N-(3-bromo-5-cyanophenyl)-5-hydroxy-N-((1R,2R)-2-hydroxycyclopentyl)-6-(hydroxymethyl)-3-methoxy-4-(4-(3,4,5-trifluorophenyl)-1H-1,2,3-triazol-1-yl)tetrahydro-2H-pyran-2-carboxamide], the IC50 is reported as 98.8 nM.

With `CO[C@@H]1[C@@H](n2cc(-c3cc(F)cc(Br)c3)nn2)[C@@H](O)[C@@H](CO)O[C@H]1C(=O)N(c1cc(C)cc(C#N)c1)[C@@H]1CCC[C@H]1O` [Example 1.10.8R, (2R,3R,4S,5R,6R)-4-(4-(3-bromo-5-fluorophenyl)-1H-1,2,3-triazol-1-yl)-N-(3-cyano-5-methylphenyl)-5-hydroxy-N-((1R,2R)-2-hydroxycyclopentyl)-6-(hydroxymethyl)-3-methoxytetrahydro-2H-pyran-2-carboxamide] the IC50 was 1120 nM.
